Source: article PMC4268698, “Cell type-specific delivery of short interfering RNAs by dye-functionalised theranostic nanoparticles” (Nature Communications, 2014)
Entries after “also recorded” stand apart in the source; their conditions may differ.

Experiments:
[1] = system: primary murine hepatocytes; assay: Uptake of free DY-635 by primary hepatocytes, with and without cyclosporine A; assay type: cell-based, mouse; conditions: 37 or 4 °C
Protocol: This was then diluted 1:1 (v/v) with either 400 nM DY-635 (amino-terminated) or 10 μg NP in KHB. […] Lysates were analysed on a Tecan plate reader (Tecan) (excitation: 488±09 nm, emission 530±20 nm). […] Data were normalised to cellular protein (Bradford).

liver parenchyma = assay: Intravital microscopy of liver (fluorescence decay, cellular association); assay type: in vivo, male FVB/NRj mice; conditions: Cy5 channel, after injection
Protocol: IVM was performed using an inverted epifluorescence microscope (AxioObserverR Z1; Zeiss) as described previously.

OATP1B3 = target: T1, OATP1B3 (Homo sapiens, UniProt Q9NPD5); assay: DY-635 interaction with hepatic basolateral transporters, transfected HEK293 cells, radio-labelled substrate uptake; assay type: cell-based; conditions: 10 μM DY-635 vs rifampicin 20 μM; substrate [3H]sulfobromphthalein 50 nM; transfected HEK cells
T1 construct: expressed in transfected cells; host or cells: HEK293 (pcDNA5 vector)
T1 sequence (Q9NPD5 1-702): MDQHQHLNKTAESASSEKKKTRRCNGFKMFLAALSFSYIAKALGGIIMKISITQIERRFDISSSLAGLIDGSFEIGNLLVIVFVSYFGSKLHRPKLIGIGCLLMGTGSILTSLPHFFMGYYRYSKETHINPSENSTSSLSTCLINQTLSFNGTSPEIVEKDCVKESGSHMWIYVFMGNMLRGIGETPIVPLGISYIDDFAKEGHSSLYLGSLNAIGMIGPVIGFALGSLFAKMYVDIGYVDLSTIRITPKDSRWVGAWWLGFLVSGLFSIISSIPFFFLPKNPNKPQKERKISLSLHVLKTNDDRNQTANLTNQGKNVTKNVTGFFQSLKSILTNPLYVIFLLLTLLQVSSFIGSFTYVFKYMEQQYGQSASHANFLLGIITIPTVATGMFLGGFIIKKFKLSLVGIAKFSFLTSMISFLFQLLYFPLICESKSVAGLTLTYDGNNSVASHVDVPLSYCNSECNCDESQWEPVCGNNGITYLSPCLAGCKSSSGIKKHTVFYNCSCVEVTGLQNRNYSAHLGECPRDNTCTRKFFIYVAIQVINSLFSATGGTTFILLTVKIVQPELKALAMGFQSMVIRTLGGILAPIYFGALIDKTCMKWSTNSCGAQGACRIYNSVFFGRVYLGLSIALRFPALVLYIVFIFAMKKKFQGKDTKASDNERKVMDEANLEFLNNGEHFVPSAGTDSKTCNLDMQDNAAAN
Protocol: (§1) HEK293 cells were transfected with OATP1B1 (SLCO1B1, NM_006446), OATP1B3 (SLCO1B3, NM_019844), OCT1 (SLC22A1, NM_003057.2), OAT2 (SLC22A7, NM_006672), NTCP (SLC10A1, NM_003049), NaDC3 (SLC13A3, AF154121) or the empty vector (pcDNA5).Transfected HEK293 cells were seeded at 2 × 10^5 cells per well and cultured for 3 days.

OATP1B1 = target: T2, OATP1B1 (Homo sapiens, UniProt Q9Y6L6); assay: as above; assay type: cell-based; conditions: 10 μM DY-635 vs rifampicin 20 μM; substrate [3H]estrone-sulfate 30 nM; transfected HEK cells
T2 construct: expressed in transfected cells; host or cells: HEK293 (pcDNA5 vector)
T2 sequence (Q9Y6L6 1-691): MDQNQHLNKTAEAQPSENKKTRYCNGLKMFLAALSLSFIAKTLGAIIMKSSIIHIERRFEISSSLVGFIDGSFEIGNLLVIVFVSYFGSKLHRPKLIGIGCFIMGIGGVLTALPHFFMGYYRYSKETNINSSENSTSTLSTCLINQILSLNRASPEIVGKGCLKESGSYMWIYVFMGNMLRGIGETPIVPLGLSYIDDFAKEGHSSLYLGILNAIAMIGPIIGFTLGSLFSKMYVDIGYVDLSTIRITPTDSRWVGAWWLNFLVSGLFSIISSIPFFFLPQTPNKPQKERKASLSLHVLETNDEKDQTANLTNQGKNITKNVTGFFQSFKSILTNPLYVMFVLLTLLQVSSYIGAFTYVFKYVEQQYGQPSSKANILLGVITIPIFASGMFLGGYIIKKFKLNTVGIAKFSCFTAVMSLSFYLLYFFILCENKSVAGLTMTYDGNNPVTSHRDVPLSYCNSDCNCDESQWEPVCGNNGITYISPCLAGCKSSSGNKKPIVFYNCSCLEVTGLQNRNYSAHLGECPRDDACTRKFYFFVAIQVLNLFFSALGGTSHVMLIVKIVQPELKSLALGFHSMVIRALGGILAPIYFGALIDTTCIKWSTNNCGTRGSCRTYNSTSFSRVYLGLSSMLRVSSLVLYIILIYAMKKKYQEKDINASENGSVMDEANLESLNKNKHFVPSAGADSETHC
Protocol: as §1

NTCP = target: T3, NTCP (Homo sapiens, UniProt Q14973); assay: as above; assay type: cell-based; conditions: 10 μM DY-635; substrate [3H]estrone-sulfate 10 μM; transfected HEK cells
T3 construct: expressed in transfected cells; host or cells: HEK293 (pcDNA5 vector)
T3 sequence (Q14973 1-349): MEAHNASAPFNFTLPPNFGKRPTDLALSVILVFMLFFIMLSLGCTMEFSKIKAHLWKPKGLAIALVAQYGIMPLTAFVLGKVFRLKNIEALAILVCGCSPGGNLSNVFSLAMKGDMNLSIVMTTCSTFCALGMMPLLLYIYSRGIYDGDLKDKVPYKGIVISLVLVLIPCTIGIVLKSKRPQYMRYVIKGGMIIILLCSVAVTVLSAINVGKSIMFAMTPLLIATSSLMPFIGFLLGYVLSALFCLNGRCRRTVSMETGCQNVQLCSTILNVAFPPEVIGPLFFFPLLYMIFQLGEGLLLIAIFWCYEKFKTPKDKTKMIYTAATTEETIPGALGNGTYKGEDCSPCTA
Protocol: as §1

[2] = In vivo pharmacokinetics of polymethine dyes (organ-specific clearance by liver and kidneys); parameters: species or system male Wistar rats; conditions: i.v., rats
Protocol: Catheters were placed in the jugular vein, carotid artery, bladder and bile duct of male Wistar rats (300–400 g body weight (BW)). After i.v. administration of DY-635 (13 pmol per g BW), DY-630 (13 pmol per g BW), DY-750 (13 pmol per gBW), DY-751 (13 pmol per g BW), DY-731 (13 pmol per g BW), DY-777 (14 pmol per g BW), DY-682 (13 pmol per g BW), DY-704 (17 pmol per g BW), DY-732 (13 pmol per g BW), DY-754 (17 pmol per g BW), DY-678 (14 pmol per g BW), DY-778 (14 pmol per g BW) or 6.5 μg DY625-[NP] per g BW, bile was collected every 5 min and 200 μl arterial blood taken at defined times into heparinised tubes. DY-635 fluorescence in bile and plasma was measured in a spectrofluorometer (FluoStar Optima, BMG Labtech). Results are mean±s.e.m. of three biological replicates.

HepaRG and HUVEC cells = assay: Microfluidic-assisted organoid, co-culture of HepaRG and HUVEC, nanoparticle uptake; assay type: cell-based, human
Protocol: HUVEC and HepaRG cells were co-cultured using a microfluidic-supported chip. […] 2.7 × 10^4 cells per cm^2 were seeded in William’s E medium supplemented with 10% foetal bovine serum, 100 U ml^−1 penicillin, 100 g ml^−1 streptomycin, 5 U ml^−1 insulin and 5 × 10^−5 M hydrocortisone-hemisuccinate and cultured for 2 weeks. For HepaRG differentiation, cells were cultured with 2% dimethylsulfoxide for two more weeks. Differentiated HepaRG cells were seeded at 4,000 cells per mm^2 at the bottom of the chip cavities beneath the membrane. 300,000 HUVEC (4,300 cells per mm^2) were seeded above the membrane and co-cultured with differentiated HepaRG cells in for 24 h before the uptake experiments. Cells were perfused with 50 μg ml^−1 NPs in Williams E medium. […] For each time point three pictures were taken and 200 region of interest (ROI) per picture were analysed.

Row | Structure (SMILES) | uptake of DY-635 by primary hepatocytes [1] | fluorescence decay over liver parenchyma (liver parenchyma) | affinity to OATP1B3 compared with FDA-proposed competitor (OATP1B3) | affinity to OATP1B1 compared with FDA-proposed competitor (OATP1B1) | affinity to NTCP (NTCP) | route of elimination (net organ-specific clearance) [2] | effect on uptake of DY-635[NP](−) (HepaRG and HUVEC cells)
1 | CC(C)(C)c1cc(/C=C/C=C2/N(CCCCCC(=O)NCCN)c3ccc(S(=O)(=O)O)cc3C2(C)C)c2cc3c4c(c2[o+]1)CCCN4CCC3 [DY-635] | rapid, temperature sensitive | exponential decay | substantially exceeded that of the Food and Drug Administration (FDA) proposed ligand for drug development, rifampicin | substantially exceeded that of the Food and Drug Administration (FDA) proposed ligand for drug development, rifampicin | moderate affinity | excreted preferentially via the bile; also recorded: preferential hepatobiliary clearance | 
2 | O=C1NC(=NS(=O)(=O)c2cccc3ccccc23)S/C1=C\c1ccc(Br)cc1 [Pitstop-2] |  |  |  |  |  |  | inhibition of NP uptake
